Settings: rat; liver microsomes; pH 7.4; 15.0 min; 1.0 µM

SMILES	half-life [min]
O=C(NCCO)c1cccc(-c2cc(Nc3ccc(OC(F)(F)F)cc3)ncn2)c1	> 30
Fc1cnc(-c2ccccc2C(F)F)nc1NCc1ccc(-n2ccnn2)cc1	21
CNc1cc(-c2nc(Nc3ccc(F)c(F)c3)c3ccccc3n2)ccn1	8.2
Cn1cnc2c(F)c(Nc3ccc(Br)cc3Cl)c(C(=O)NOCCO)cc21	> 30
Cc1cc(C)c2nc(-c3ccccn3)cc(C(=O)Nc3ccc(S(=O)(=O)Nc4onc(C)c4C)cc3)c2c1	> 30
CCC(=O)NC(c1ccc(OC)cc1)c1cc(Cl)c2cccnc2c1O (stereo not drawn)	4.41
Nc1cc(CN2C(=O)c3ccccc3C2=O)cc(Cl)c1O	11.7
CC(=O)Nc1ccc(CN2CCc3nc(C(C)C)nc(-c4ccc(Cl)cc4)c3CC2)cc1	4.1
CCN1CCc2c(sc(NC(=O)Nc3ccc(Cl)c(Cl)c3)c2C(N)=O)C1	> 30
OCc1ccc(-c2nn(Cc3ccccc3)c3ccccc23)o1	5.17
Cc1ccc(-n2c(=O)c3oc4ccccc4c3n(CC(=O)Nc3ccc(F)c(Cl)c3)c2=O)cc1C	29.6
CC(C)(C)OC(=O)N[C@@H](Cc1ccc(O[S+](=O)([O-])c2cccc3cnccc23)cc1)C(=O)Nc1ccc(-c2ccccc2)cc1	2.55
CC(=O)NCc1ccc(-c2csc(Nc3cc(C)cc(C)c3)n2)o1	> 30
Fc1cc(Nc2nc(-c3ccncc3)nc3ccccc23)ccc1OCC(F)(F)F	28
Nc1ccc(S(=O)(=O)Nc2cnccc2C(=O)Nc2nc(-c3ccccc3)cs2)cc1	25
O=C(Nc1ccc(N2CCN(c3ncccc3C(F)(F)F)CC2)nc1)c1cccs1	10.3
N#Cc1ccc(NS(=O)(=O)c2ccc(NC(=O)Cc3ccc(Cl)c(Cl)c3)cc2)cc1	> 30
COc1ccc(NC2=C(c3ccc(C(F)(F)F)cc3)C(=O)c3ccccc32)cc1	7.57
CN(C(=O)COC(=O)c1csc(NCc2ccccc2)n1)c1ccccc1	1.4
Cc1nc2sccn2c(=O)c1S(=O)(=O)Nc1ccc(N2CCN(S(C)(=O)=O)CC2)cc1	> 30
COc1ccccc1C(=O)Nc1nc2nc(C)cc(=O)n2[nH]1	26
Cc1ccnc(NC(=S)N2CCN(c3cccc(C(F)(F)F)c3)C[C@@H]2C)c1	7.12
COc1ccc(-n2c(C)c(C(C)=O)c3cc(O)ccc32)cc1	2.2
COc1ccc(OC)c(C(=O)Nc2nc(-c3ccccc3)cs2)c1	20
CC1CC(C)(C)N(C(=O)CN2C(=O)c3ccccc3C2=O)c2ccccc21 (stereo not drawn)	1.56
Clc1ccc(Nc2nc(-c3ccncc3)nc3ccccc23)cc1Cl	15

SMILES	half-life [min]
CC(=O)N1CCN(c2ccc(OCc3nn(C)c(C)c3-c3cccc4c(CCCOc5cccc6ccccc56)c(C(=O)O)n(Cc5cccnc5)c34)cc2)CC1	15
C#CCNC(=O)c1nc(-c2ccc(Cl)nc2)c2ccccn12	24
Cc1ccc(-c2cc3c(nn2)-c2ccccc2C3=O)cc1	3.4
COc1ccc(-n2nc(C3CCCN(C(=O)c4ccccc4)C3)[nH]c2=O)cc1 (stereo not drawn)	> 30
CCOc1ccc(C(C)CNC(=O)c2cc3sccc3n2Cc2ccccc2)cc1OCC (stereo not drawn)	2.5
Cc1ccccc1C(=O)N1CCc2cc(-c3nc(NC(=O)Cc4ccccc4)sc3C)ccc21	24
CO[C@@H]1[C@H](N(C)C(=O)c2ccccc2)C[C@H]2O[C@]1(C)n1c3ccccc3c3c4c(c5c6ccccc6n2c5c31)C(=O)NC4	6.54
COc1ccc(NC(=O)C2=C(C)NC(Nc3nc4ccccc4o3)=NC2c2ccccc2Br)cc1 (stereo not drawn)	21
Cc1ccc(-c2cc(C(=O)Nc3ccc(S(N)(=O)=O)cc3)c3cccc(C)c3n2)cc1C	> 30
Cc1noc([C@@H]2CN(C(=O)c3nn(C)c4ccccc34)C[C@H]2CO)n1	> 30
Cc1cccc2oc(NC3=NC(c4[nH]ncc4Cl)C4=C(CCCC4=O)N3)nc12 (stereo not drawn)	10.6
CC(=O)C1CCN(c2ncc(-c3cccc(N(C)C)c3)s2)CC1	2.51
O=C(Nc1ccc([S+](=O)([O-])Nc2nccs2)cc1)c1ccccn1	2.4
Cc1c(Cl)cccc1-n1ncc(C(=O)Nc2ccc(Br)cc2F)c1C1CCNCC1	9.8
CN(C)c1cccc(-c2cnc(N3CCC(C(N)=O)CC3)nc2)c1	16.8
Cc1ccc(S(=O)(=O)Nc2cnccc2C(=O)Nc2nc(-c3cccc(F)c3)cs2)cc1	27
Cc1cccc(N2CCN(C(=O)Cn3ncc4c3-c3ccccc3OC4)CC2)c1C	2.76
CC(C)(C)c1ccc(SC2=NS(=O)(=O)c3ccccc32)cc1	1.74
CC(=O)N1CCc2c(sc3c2c(=O)n(-c2ccccc2)c(=O)n3CC(=O)c2ccccc2)C1	> 30
CCCCCn1cc2c(c1-c1ccc(Br)cc1)c(=O)n(C)c(=O)n2C	6.39
C=CCc1ccc(O)c(-c2ccc(O)c(CC=C)c2)c1	2.36
CC(C)c1c(-c2ccccc2)nc2c(C#N)c[nH]n2c1=O	> 30
Cc1cccc(S(=O)(=O)c2cn(Cc3ccccc3)c3cc(N4CCCC(C)C4)c(F)cc3c2=O)c1 (stereo not drawn)	2.01
O=C(NC1CCCN(c2cc(-c3ccc(F)cc3)[nH]n2)C1)c1ccc2ncccc2c1 (stereo not drawn)	16.2
O=C(Cc1ccc(Cl)c(Cl)c1)Nc1ccc(S(=O)(=O)Nc2cccc(O)c2)cc1	10
COc1ccc(C2Nc3ccccc3C(=O)N2Cc2cccnc2)cc1COc1c(C)cc(NC(C)=O)cc1C (stereo not drawn)	1.8

SMILES	half-life [min]
Cc1cc(NS(=O)(=O)c2ccc(NC(=O)c3oc4ccccc4c3C)cc2)nc(C)n1	> 30
O=C(Cc1ccc2ccccc2c1)Nc1ccc(S(=O)(=O)Nc2nccs2)cc1	> 30
N[C@@H](CSCc1ccccc1)C(=O)O	> 30
Clc1ccc(C2(c3ccc(-c4cn[nH]c4)cc3)CCNCC2)cc1	> 30
O=C(Nc1ccccc1)C1CCN(c2ncc(-c3ccc4c(c3)OCCCO4)s2)CC1	1.44
COc1cccc(S(=O)(=O)Nc2cnccc2C(=O)Nc2nc(-c3ccccc3)cs2)c1	6.7
CCOc1ccccc1C(=O)Nc1ccccc1C(=O)Nc1cccc(C(F)(F)F)c1	22.8
CS(=O)(=O)N1CCN(c2nc(-c3ccc(Br)cc3)cs2)CC1	> 30
CC(C)COc1ccc(-c2ccc(=O)n(CC(=O)NCCc3ccccc3)n2)cc1	1.8
CC(C)(C)C1CCc2[nH]c3ccccc3c(=O)c2C1 (stereo not drawn)	18.7
Cc1ccc(S(=O)(=O)Nc2ccccc2C(=O)Nc2ccc(-c3ccccc3)cn2)cc1	4.9
COc1ccc(S(=O)(=O)N2CCN(C(=O)C3COc4ccccc4O3)CC2)cc1 (stereo not drawn)	7.6
Cc1cc(-c2nnc3n2CCCCC3)c(C)n1-c1ccncc1	14
COc1ccc(NC(=O)c2[nH]c(C)cc2C)cc1S(=O)(=O)Nc1ccc(Br)cc1	> 30
COc1cccc(CNc2ccc(S(=O)(=O)Nc3ccc(-c4ccccc4)cc3)cc2)c1O	2.7
Cc1cc(-c2nnc3n2CCCCC3)c(C)n1-c1ccc(Cl)c(Cl)c1	1.9
COC(=O)Nc1nc2ccc(Sc3ccccc3)cc2[nH]1	18.4
Cc1ccc(S(=O)(=O)Nc2cnccc2C(=O)Nc2nc(-c3cc4ccccc4o3)cs2)cc1	20
NC(=O)c1cccc(-c2cc(Nc3ccc(OC(F)(F)F)cc3)ncn2)c1	> 30
Cn1nnnc1Sc1ncnc2scc(-c3cccc(S(C)(=O)=O)c3)c12	> 30
Cc1ccc(CN2CCOC[C@H]2c2ncc(-c3cccc(F)c3)[nH]2)cc1	2.16
CC(C)(C)c1ccc(S(=O)(=O)N2CCC(c3ccncc3)CC2)cc1	14.3
Cc1ccc(-c2cc(C(=O)Nc3ccc(-c4nn[nH]n4)cc3)c3ccccc3n2)cc1C	> 30
Cc1cccc(NCc2ccc(O)c3ncccc23)c1	2.2
O=C(c1ccco1)N1CCN(c2nc(-c3ccc(Br)cc3)cs2)CC1	> 30
CN1C(=O)c2ccccc2[S@](=O)c2ccc(C(=O)NCc3ccc(Br)cc3)cc21	13

SMILES	half-life [min]
O=C1Nc2ccccc2/C1=C\c1cc(F)c(O)c(F)c1	23
C[S+](=O)([O-])c1ccc(-c2nc(C(=O)N3CCOCC3)n3ccccc23)cc1	> 30
COc1cc(C(=O)NC2CCCc3c2[nH]c2c(Cl)cccc32)cc(OC)c1OC (stereo not drawn)	8.45
Cc1ccc(S(=O)(=O)Nc2cccc(C(=O)Nc3nc(-c4ccc(Cl)cc4)cs3)c2)cc1	23
NCC(=O)Nc1ccc(Cl)cc1C(=O)c1ccc[nH]1	> 30
O=C1CCCC2=C1C(c1[nH]ncc1Cl)N=C(Nc1nc3cc([S+](=O)([O-])N4CCOCC4)ccc3o1)N2 (stereo not drawn)	9.4
Cc1cnc(-c2ccccc2C(F)F)nc1NCc1ccc(-n2ccnn2)cc1	21
CN1C(=O)c2ccccc2[S@](=O)c2ccc(C(=O)NCc3cccnc3)cc21	> 30
COc1ccc(CN2CCc3c(c(=O)n4ncc(C(=O)N5CCN(c6ccccc6OC)CC5)c4n3C)C2)cc1	1.97
Cc1ccc(OCCn2c(CCNC(=O)c3ccc(Cl)cc3)nc3ccccc32)cc1	1.8
COc1ccccc1Nc1ccnc(N2CCN(C(=O)c3ccc(C)cc3)CC2)n1	5.68
Cc1ccccc1C(=O)N1CCc2cc(-c3csc(NC(=O)Cc4ccc5c(c4)OCO5)n3)ccc21	10.2
NC(=O)C1CCN(c2nnc(-c3ccc(Br)cc3)s2)CC1	7.89
Cn1nnnc1SCCCNCc1cccc(OCc2ccccc2Cl)c1	1.72
O=C(Nc1ccc2oc(-c3ccncc3)nc2c1)c1ccccc1Cl	> 30
CCOc1ccc(CCNC(=O)c2ccc3ccccc3n2)cc1OCC	1.7
O=[N+]([O-])c1ccc(/C=N/n2c(CO)nc3ccccc32)s1	21
Cc1onc(-c2ccccc2)c1C(=O)Nc1nnc(COc2ccc(Cl)cc2)s1	> 30
CNc1nc(-c2cccc3ccccc23)ccc1C#N	5.7
Cc1ccc2nc(-c3ccccn3)c(Nc3ccccc3C)n2c1	12.2
O=C1CCc2cc(S(=O)(=O)Nc3ccc(F)c(Cl)c3)c(F)cc2N1	16.8
CN1CCCN(C(c2ccccc2)c2ccc(Cl)cc2)CC1 (stereo not drawn)	2.89
COc1cccc(CNc2ccc(S(=O)(=O)Nc3cc(C)on3)cc2)c1O	> 30
COc1ccc(Cn2c(C(=O)O)c(CNCc3ccco3)c3ccc(C)cc32)cc1	> 30
O=C(Nc1nnc(C2CCCCC2)s1)c1ccc(Br)s1	> 30

— PubChem BioAssay AID1508591
